Measurements reported in ChEMBL document CHEMBL4330075, “Discovery of Novel Quinoline-Chalcone Derivatives as Potent Antitumor Agents with Microtubule Polymerization Inhibitory Activity” (J Med Chem, 2019).
Values after ≈ are worked out from the molar mass of the structure shown.

How the values were obtained:
K562 [1] = experiment: Cell cycle arrest in human K562 cells assessed as accumulation of cells at G1 phase at 5 nM after 48 hrs by propidium iodide staining-based flow cytometric analysis (reference value: 47.91%); assay type: functional
K562 [2] = experiment: Induction of apoptosis in human K562 assessed as early apoptotic cells at 5 nM after 48 hrs by Annexin V-APC/propidium iodide staining-based flow cytometric analysis (reference value: 4.44%); assay type: functional
K562 [3] = experiment: Induction of apoptosis in human K562 assessed as viable cells at 20 nM after 48 hrs by Annexin V-APC/propidium iodide staining-based flow cytometric analysis (reference value: 92.34%); assay type: functional; details: K562, 48 h, read-out: Activity
[4] = Toxicity in ICR mouse xenografted with […] cells assessed as decrease in body weight at 10 to 20 mg/kg, iv qd administered for 21 days and measured every 2 days; assay type: organism-based; details: in vivo
K562 [5] = experiment: Cell cycle arrest in human K562 cells assessed as accumulation of cells at S phase at 20 nM after 48 hrs by propidium iodide staining-based flow cytometric analysis (reference value: 36.27%); assay type: functional
K562 [6] = experiment: Cell cycle arrest in human K562 cells assessed as accumulation of cells at G1 phase at 20 nM after 48 hrs by propidium iodide staining-based flow cytometric analysis (reference value: 47.91%); assay type: functional
K562 [7] = experiment: Cell cycle arrest in human K562 cells assessed as accumulation of cells at G1 phase at 10 nM after 48 hrs by propidium iodide staining-based flow cytometric analysis (reference value: 47.91%); assay type: functional
K562 [8] = experiment: Induction of apoptosis in human K562 assessed as necrotic cells at 20 nM after 48 hrs by Annexin V-APC/propidium iodide staining-based flow cytometric analysis (reference value: 1.92%); assay type: functional
[9] = Antitumor activity against […] H22 cells xenografted in ICR mouse assessed as reduction in tumor weight at 20 mg/kg, iv qd for 21 consecutive days and measured every 2 days relative to control; assay type: functional; parameters: scale not given: the % may be the effect or the level left
L02 = experiment: Cytotoxicity against human LO2 cells after 72 hrs by MTT assay; assay type: cell-based; details: L02, 72 h
K562 [10] = experiment: Induction of apoptosis in human K562 assessed as early apoptotic cells at 20 nM after 48 hrs by Annexin V-APC/propidium iodide staining-based flow cytometric analysis (reference value: 4.44%); assay type: functional
K562 [11] = experiment: Induction of apoptosis in human K562 assessed as necrotic cells at 5 nM after 48 hrs by Annexin V-APC/propidium iodide staining-based flow cytometric analysis (reference value: 1.92%); assay type: functional
K562 [12] = experiment: Induction of mitochondrial membrane potential disruption in human K562 cells assessed as intact mitochondrial membrane potential at 5 nM after 48 hrs by JC-1 staining-based flow cytometric analysis (reference value: 99.12%); assay type: functional
K562 [13] = experiment: Cell cycle arrest in human K562 cells assessed as accumulation of cells at G2 phase at 20 nM after 48 hrs by propidium iodide staining-based flow cytometric analysis (reference value: 15.82%); assay type: functional
K562 [14] = experiment: Cell cycle arrest in human K562 cells assessed as accumulation of cells at G2 phase at 5 nM after 48 hrs by propidium iodide staining-based flow cytometric analysis (reference value: 15.82%); assay type: functional
[15] = Aqueous solubility in pH 7.4 phosphate buffer by HPLC analysis; assay type: physicochemical
K562 [16] = experiment: Cell cycle arrest in human K562 cells assessed as accumulation of cells at S phase at 10 nM after 48 hrs by propidium iodide staining-based flow cytometric analysis (reference value: 36.27%); assay type: functional
HepG2 = experiment: cells; details: Homo sapiens, HepG2, 72 h
KB = experiment: Antiproliferative activity against human KB cells after 72 hrs by MTT assay; assay type: functional, cell-based
HCT-8 = experiment: Antiproliferative activity against human HCT8 cells after 72 hrs by MTT assay; assay type: functional, cell-based; details: HCT-8, 72 h
[17] = Toxicity in ICR mouse assessed as mouse survival at 409.6 mg/kg, iv for 14 days relative to control; assay type: organism-based; details: in vivo
K562 [18] = experiment: Induction of mitochondrial membrane potential disruption in human K562 cells assessed as collapsed mitochondrial membrane potential at 5 nM after 48 hrs by JC-1 staining-based flow cytometric analysis (reference value: 0.63%); assay type: functional
[19] = Toxicity in ICR mouse assessed as mouse survival at 1000 mg/kg, iv for 14 days relative to control; assay type: organism-based; details: in vivo
K562 [20] = experiment: Induction of apoptosis in human K562 assessed as late apoptotic cells at 5 nM after 48 hrs by Annexin V-APC/propidium iodide staining-based flow cytometric analysis (reference value: 1.30%); assay type: functional
K562 [21] = experiment: Induction of mitochondrial membrane potential disruption in human K562 cells assessed as collapsed mitochondrial membrane potential at 20 nM after 48 hrs by JC-1 staining-based flow cytometric analysis (reference value: 0.63%); assay type: functional
K562 [22] = experiment: Induction of mitochondrial membrane potential disruption in human K562 cells assessed as intact mitochondrial membrane potential at 10 nM after 48 hrs by JC-1 staining-based flow cytometric analysis (reference value: 99.12%); assay type: functional
[23] = Cardiotoxicity in ICR mouse xenografted with […] cells at 10 to 20 mg/kg, iv qd for 21 consecutive days by H and E staining-based assay; assay type: toxicity, organism-based; details: in vivo
K562 [24] = experiment: Antiproliferative activity against human K562 cells after 72 hrs by MTT assay; assay type: functional, cell-based; details: K562, 72 h
[25] = Toxicity in ICR mouse xenografted with […] cells assessed as effect on spleen at 10 to 20 mg/kg, iv qd for 21 consecutive days by H and E staining-based assay; assay type: organism-based; details: in vivo
[26] = Toxicity in ICR mouse xenografted with […] cells assessed as effect on lung at 10 to 20 mg/kg, iv qd for 21 consecutive days by H and E staining-based assay; assay type: organism-based; details: in vivo
[27] = Toxicity in ICR mouse assessed as mouse survival at 640 mg/kg, iv for 14 days relative to control; assay type: organism-based; details: in vivo
K562 [28] = experiment: Cell cycle arrest in human K562 cells assessed as accumulation of cells at S phase at 5 nM after 48 hrs by propidium iodide staining-based flow cytometric analysis (reference value: 36.27%); assay type: functional
[29] = Hepatotoxicity in ICR mouse xenografted with […] cells at 10 to 20 mg/kg, iv qd for 21 consecutive days by H and E staining-based assay; assay type: toxicity, organism-based; details: in vivo
[30] = Cytotoxicity against human MDA-MB-231 cells assessed as growth inhibition at 10 nM after 48 hrs; assay type: cell-based; details: read-out: GI
HUVEC = experiment: Antiproliferative activity against human HUVEC cells after 24 hrs by MTT assay; assay type: cell-based
[31] = Toxicity in ICR mouse assessed as mouse survival at 512 mg/kg, iv for 14 days relative to control; assay type: organism-based; details: in vivo
K562 [32] = experiment: Induction of apoptosis in human K562 assessed as late apoptotic cells at 20 nM after 48 hrs by Annexin V-APC/propidium iodide staining-based flow cytometric analysis (reference value: 1.30%); assay type: functional
[33] = Renal toxicity in ICR mouse xenografted with […] cells at 10 to 20 mg/kg, iv qd for 21 consecutive days by H and E staining-based assay; assay type: organism-based; details: in vivo

COc1ccc(/C=C(\C)C(=O)c2cc(C)nc3ccccc23)cc1O
Activity (K562 [1]): 50.41%
Activity (K562 [2]): 12.87%
viability at 0.02 µM (K562 [3]): 35%
Activity [4]: Non-Toxic
Activity (K562 [5]): 30.35%
Activity (K562 [6]): 42.68%
Activity (K562 [7]): 52.22%
Activity (K562 [8]): 4.86%
Activity [9]: 65.3%
IC50 (L02): 987 nM
Activity (K562 [10]): 36.86%
Activity (K562 [11]): 2.63%
Activity (K562 [12]): 84.97%
Activity (K562 [13]): 26.98%
Activity (K562 [14]): 18.04%
solubility [15]: 16 µg/mL (≈ 48 µM)
Activity (K562 [16]): 24.94%
IC50 (HepG2): 15 nM
IC50 (KB): 16 nM
IC50 (HCT-8): 15 nM
survival at 336 h [17]: 90%
Activity (K562 [18]): 15.02%
survival at 336 h [19]: 10%
Activity (K562 [20]): 4.34%
Activity (K562 [21]): 53.39%
Activity (K562 [22]): 73.8%
Activity [23]: Non-Toxic
IC50 (K562 [24]): 9 nM
Activity [25]: Non-Toxic
Activity [26]: Non-Toxic
survival at 336 h [27]: 60%
Activity (K562 [28]): 31.55%
Activity [29]: Non-Toxic
inhibition at 48 h, 0.01 µM [30]: < 10%
IC50 (HUVEC): 250 nM
survival at 336 h [31]: 80%
Activity (K562 [32]): 23.28%
Activity [33]: Non-Toxic
